# Results published in PMC1977344 (British Journal of Cancer, 1992).
# Read-outs that look alike come from different tables or passages of the source.
# Assays:
# [1] = cited from earlier work
# [2] = ref Shimomum et al. (1971); cited from earlier work
# [3] = open study in man; ref Osborne et al., 1989; cited from earlier work
# [4] = biological target: T1, delta receptor (Rattus norvegicus, UniProt P33533); test: Radioligand binding, delta assay (3H-DSLET displacement with DAGO block, rat brain P2 homogenate); set-up: species or system Wistar rats
# T1 construct: from tissue
# [5] = biological target: T2, mu 2 receptor (Rattus norvegicus, UniProt P33535); details: for fold lower affinity of M6G than morphine at the mu 2 receptor (IC50 ratio): from mean IC50s; for specific binding of the 3H-ligand remaining, mu 2 assay: test substance at 5 µM (5 pM in methods)
# [6] = biological target: mu 1 receptor (Rattus norvegicus, UniProt P33535); test: Radioligand binding, mu 1 assay (3H-DSLET displacement with DPDPE block, rat brain P2 homogenate); set-up: species or system Wistar rats
# [7] = biological target: T2, mu 2 receptor; test: biochemical; details: IC50 mu 2 receptor
# [8] = test system: kappa receptor; set-up: method as in Pasternak et al., 1987; details: not yet accurately determined; ref Pasternak et al., 1987; cited from earlier work
# [9] = test system: delta receptor; set-up: method as in Oguri et al. (1987); details: 3H-leucine enkephalin; ref Oguri et al. (1987); cited from earlier work
# [10] = biological target: T3, total mu (mu 1 and mu 2) receptor (Rattus norvegicus, UniProt P33535); test: Radioligand binding, total mu assay (3H-DAGO displacement, rat brain P2 homogenate); set-up: species or system Wistar rats; specific binding of the 3H-ligand remaining, total mu assay: dose or concentration left out as unconfirmed
# T3 construct: from tissue
# [11] = normal volunteers; ref Thompson et al., 1990; cited from earlier work
# [12] = test substance at 5 µM (5 pM in methods)
# T2 sequence (P33535 whole entry): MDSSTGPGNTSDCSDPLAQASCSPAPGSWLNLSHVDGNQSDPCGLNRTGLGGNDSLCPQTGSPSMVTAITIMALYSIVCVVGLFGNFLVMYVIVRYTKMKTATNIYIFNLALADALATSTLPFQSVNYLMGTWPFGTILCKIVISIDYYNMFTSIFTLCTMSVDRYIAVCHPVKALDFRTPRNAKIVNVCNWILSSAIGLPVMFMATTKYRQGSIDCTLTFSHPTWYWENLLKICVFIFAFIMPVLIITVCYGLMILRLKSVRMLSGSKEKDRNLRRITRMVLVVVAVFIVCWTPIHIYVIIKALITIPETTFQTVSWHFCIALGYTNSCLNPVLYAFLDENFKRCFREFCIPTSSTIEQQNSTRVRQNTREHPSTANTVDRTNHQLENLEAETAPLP
# T3 sequence (P33535 whole entry): as above
# Sequence of mu 1 receptor (P33535 whole entry): as above
# T1 sequence (P33533 whole entry): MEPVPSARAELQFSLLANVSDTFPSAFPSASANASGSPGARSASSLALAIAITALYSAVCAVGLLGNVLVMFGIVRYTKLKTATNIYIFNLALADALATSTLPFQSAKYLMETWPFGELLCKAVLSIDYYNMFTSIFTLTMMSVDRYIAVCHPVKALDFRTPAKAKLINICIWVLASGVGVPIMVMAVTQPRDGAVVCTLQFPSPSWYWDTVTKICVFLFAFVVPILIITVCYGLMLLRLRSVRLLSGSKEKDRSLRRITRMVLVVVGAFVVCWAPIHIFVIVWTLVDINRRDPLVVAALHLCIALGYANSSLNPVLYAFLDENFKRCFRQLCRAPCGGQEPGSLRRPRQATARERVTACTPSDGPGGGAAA
smiles,measurement,setting,value
"CN1CC[C@]23c4c5ccc(O[C@@H]6O[C@H](C(=O)O)[C@@H](O)[C@H](O)[C@H]6O)c4O[C@H]2[C@@H](O)C=C[C@H]3[C@H]1C5 [M3G, morphine 3-glucuronide]",analgesic activity,"[1]; ref Osborne et al., 1986, Hanks et al., 1987, Hoskin & Hanks, 1990",devoid of analgesic activity
"CN1CC[C@]23c4c5ccc(O)c4O[C@H]2[C@@H](O[C@@H]2O[C@H](C(=O)O)[C@@H](O)[C@H](O)[C@H]2O)C=C[C@H]3[C@H]1C5 [M6G, morphine 6-glucuronide]",systemic LD50 relative to that of morphine,[2],88%
same,nausea or sedation at doses sufficient to give significant pain relief,[3],no nausea or sedation was seen
same,IC50,[4],75 nM
same,systemic analgesic potency advantage over morphine,"[1]; systemic, ref Shimomura et al., 1971, Abbott & Palmour, 1988",3 fold
same,fold lower affinity of M6G than morphine at the mu 2 receptor (IC50 ratio),[5],4.8 fold
same,fold lower affinity of M6G than morphine at the mu 2 receptor (IC50 ratio),[5]; listed as Morphine 6-glucuronide,4 fold
same,IC50,"[6]; read-out: IC50 mu 1 receptor, whole brain preparations, P2 fraction of whole rat brain homogenate, single assay",170 nM
same,IC50,"[7]; brain minus hypothalami, P2 fraction, 3H-DAGO 1.5 nM, DSLET 5 nM block, mean ± SEM",82 nM
same,IC50,"[7]; whole brain preparations, P2 fraction of whole rat brain homogenate, single assay",66 nM
same,affinity for the kappa receptor,[8],thought to be low
same,affinity for the delta receptor relative to morphine,[9],slightly higher affinity
same,IC50,[10],80 nM
same,nausea and sedation versus morphine,[11],less nausea and no sedation
same,respiratory depression versus equipotent dose of morphine,[11],significantly less respiratory depression
CN1CC[C@@]23CCCC[C@@H]2[C@@H]1Cc1ccc(O)cc13 [dextrorphan],"specific binding of the 3H-ligand remaining, delta assay",[4]; [12],no inhibition was observed
same,"specific binding of the 3H-ligand remaining, mu 2 assay",[5],72%
same,"specific binding of the 3H-ligand remaining, mu 1 assay",[6]; [12],no inhibition was observed
same,"specific binding of the 3H-ligand remaining, total mu assay",[10],70%
CN1CC[C@]23CCCC[C@H]2[C@H]1Cc1ccc(O)cc13 [levorphanol],"specific binding of the 3H-ligand remaining, delta assay",[4],0%
same,"specific binding of the 3H-ligand remaining, mu 2 assay",[5],28%
same,"specific binding of the 3H-ligand remaining, mu 1 assay",[6],1%
same,"specific binding of the 3H-ligand remaining, total mu assay",[10],0%
